In BindingDB's records for PubMed 39167893 (University of Petroleum and Energy Studies):

Target: KRas/Son of Sevenless Homolog 1 (Homo sapiens, UniProt P01116+Q07889)
Test: Inhibition of KRAS G12D mutant/SOS1 (unknown origin) interaction by TR-FRET assay

Sequence of KRas/Son of Sevenless Homolog 1 (P01116 whole entry G12D): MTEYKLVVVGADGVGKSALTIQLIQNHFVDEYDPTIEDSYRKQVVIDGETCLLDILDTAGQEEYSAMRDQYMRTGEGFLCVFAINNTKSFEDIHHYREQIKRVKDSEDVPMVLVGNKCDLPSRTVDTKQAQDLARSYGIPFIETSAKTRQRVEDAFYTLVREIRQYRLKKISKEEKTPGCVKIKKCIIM
Sequence of KRas/Son of Sevenless Homolog 1 (Q07889 whole entry): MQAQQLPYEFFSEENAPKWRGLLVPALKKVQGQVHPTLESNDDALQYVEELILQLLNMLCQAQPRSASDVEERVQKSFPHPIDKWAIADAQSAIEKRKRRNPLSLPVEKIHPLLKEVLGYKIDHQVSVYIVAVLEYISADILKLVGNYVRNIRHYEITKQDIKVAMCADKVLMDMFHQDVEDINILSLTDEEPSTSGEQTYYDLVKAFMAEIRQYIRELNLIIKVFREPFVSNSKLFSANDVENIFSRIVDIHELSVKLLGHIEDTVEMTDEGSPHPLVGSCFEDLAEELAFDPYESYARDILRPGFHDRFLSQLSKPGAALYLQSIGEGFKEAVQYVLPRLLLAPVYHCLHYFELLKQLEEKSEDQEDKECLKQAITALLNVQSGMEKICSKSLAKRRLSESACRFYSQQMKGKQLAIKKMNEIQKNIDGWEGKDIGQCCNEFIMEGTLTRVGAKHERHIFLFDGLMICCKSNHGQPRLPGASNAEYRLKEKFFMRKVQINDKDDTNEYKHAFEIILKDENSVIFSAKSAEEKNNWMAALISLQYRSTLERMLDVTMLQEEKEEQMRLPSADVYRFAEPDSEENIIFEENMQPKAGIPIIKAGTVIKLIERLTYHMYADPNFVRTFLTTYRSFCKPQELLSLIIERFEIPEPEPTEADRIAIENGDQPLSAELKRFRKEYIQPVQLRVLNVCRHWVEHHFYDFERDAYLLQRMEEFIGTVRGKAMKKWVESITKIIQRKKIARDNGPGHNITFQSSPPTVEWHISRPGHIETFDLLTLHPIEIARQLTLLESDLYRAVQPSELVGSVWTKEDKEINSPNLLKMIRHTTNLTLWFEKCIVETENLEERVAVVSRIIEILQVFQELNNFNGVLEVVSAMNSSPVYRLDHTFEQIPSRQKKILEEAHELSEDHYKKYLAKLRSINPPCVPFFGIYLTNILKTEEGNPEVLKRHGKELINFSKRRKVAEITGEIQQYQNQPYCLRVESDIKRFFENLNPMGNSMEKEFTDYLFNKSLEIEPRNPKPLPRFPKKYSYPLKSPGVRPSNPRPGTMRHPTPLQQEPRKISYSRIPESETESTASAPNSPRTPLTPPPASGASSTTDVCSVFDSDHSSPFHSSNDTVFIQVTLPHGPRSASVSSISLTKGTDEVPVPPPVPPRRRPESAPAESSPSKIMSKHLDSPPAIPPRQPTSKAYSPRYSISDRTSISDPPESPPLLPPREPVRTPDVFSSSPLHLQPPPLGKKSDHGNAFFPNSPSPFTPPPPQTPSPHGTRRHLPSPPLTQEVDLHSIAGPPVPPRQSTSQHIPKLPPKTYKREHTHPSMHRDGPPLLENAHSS

Cn1cnc(Cn2ccc3ccc(CNCc4[nH]c5ccccc5c4[C@H]4NC(=O)c5ccc(O)cc54)cc32)c1
IC50: 0.45 µM
